Source: patent publication US4539150A, “Benzothiazepine derivatives and their methods of preparation” (Mitsui Toatsu Chemicals, Inc., priority 1983, dated 1985)
Where a name gives a salt, the structure may show the parent alone.

Tests used:
[1] = target: T1, angiotensin converting enzyme (ACE) (Oryctolagus cuniculus, UniProt P12822); experiment: in vitro evaluation of inhibitory effects on ACE activity (method of Cushman); assay type: biochemical; conditions: ACE isolated from rabbit lungs; for IC50: Table 1, in vitro
T1 construct: Using ACE isolated from rabbit lungs; from tissue; host or cells: rabbit lungs
T1 sequence (P12822 34-1310): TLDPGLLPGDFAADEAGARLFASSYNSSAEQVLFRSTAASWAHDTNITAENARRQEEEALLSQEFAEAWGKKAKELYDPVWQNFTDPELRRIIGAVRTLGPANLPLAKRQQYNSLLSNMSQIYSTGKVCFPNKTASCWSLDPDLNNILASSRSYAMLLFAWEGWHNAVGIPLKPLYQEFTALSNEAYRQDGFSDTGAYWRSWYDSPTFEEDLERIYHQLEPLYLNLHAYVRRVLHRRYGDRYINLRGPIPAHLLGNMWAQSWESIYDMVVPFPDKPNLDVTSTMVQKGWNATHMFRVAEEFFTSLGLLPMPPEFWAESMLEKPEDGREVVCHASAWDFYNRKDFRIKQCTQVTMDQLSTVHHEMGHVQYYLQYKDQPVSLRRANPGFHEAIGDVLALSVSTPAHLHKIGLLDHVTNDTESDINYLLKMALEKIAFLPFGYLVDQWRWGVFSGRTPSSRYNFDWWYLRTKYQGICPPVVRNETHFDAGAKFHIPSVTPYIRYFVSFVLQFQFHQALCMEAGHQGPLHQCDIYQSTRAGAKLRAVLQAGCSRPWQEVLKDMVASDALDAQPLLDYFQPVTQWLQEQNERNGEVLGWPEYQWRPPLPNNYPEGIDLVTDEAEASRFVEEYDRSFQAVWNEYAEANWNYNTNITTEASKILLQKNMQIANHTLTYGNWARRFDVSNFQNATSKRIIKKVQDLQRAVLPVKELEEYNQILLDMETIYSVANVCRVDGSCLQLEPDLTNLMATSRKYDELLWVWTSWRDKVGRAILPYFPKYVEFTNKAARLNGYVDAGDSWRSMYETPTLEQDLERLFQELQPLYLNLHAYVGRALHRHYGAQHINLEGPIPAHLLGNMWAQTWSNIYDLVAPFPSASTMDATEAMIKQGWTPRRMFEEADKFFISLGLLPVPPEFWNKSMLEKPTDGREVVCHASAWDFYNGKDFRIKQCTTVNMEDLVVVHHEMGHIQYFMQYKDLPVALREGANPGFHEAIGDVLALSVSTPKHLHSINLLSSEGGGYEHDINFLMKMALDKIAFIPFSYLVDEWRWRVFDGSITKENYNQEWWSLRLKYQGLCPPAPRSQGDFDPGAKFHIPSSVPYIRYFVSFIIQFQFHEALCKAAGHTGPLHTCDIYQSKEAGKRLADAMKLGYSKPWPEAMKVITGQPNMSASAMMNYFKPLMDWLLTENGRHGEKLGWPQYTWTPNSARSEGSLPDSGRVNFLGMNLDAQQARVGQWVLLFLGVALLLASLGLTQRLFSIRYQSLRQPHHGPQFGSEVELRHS
Description: The efficacy of the compounds of the present invention can be tested by evaluating their inhibitory effects on the angiotensin converting enzyme (ACE). Using ACE isolated from rabbit lungs, in vitro evaluation of inhibitory effects on ACE activity was carried out according to the method of Cushman [Biochem. Pharmacol., 20, 1637(1971)]. […] Some of the compounds obtained in the other examples were also tested by in vitro evaluation of inhibitory effects on ACE activity and the results thus obtained are summarized in Table 1.

[2] = system: spontaneously occurring hypertensive rats (SHR); experiment: depressor effect after oral administration in spontaneously occurring hypertensive rats (SHR), systolic blood pressure of caudal artery; assay type: in vivo, rat; conditions: 50 mg/kg oral, unanesthetized male SHR
Description: The compounds of the present invention can also be tested by evaluating their depressor effects. Such evaluation was carried out by using spontaneously occurring hypertensive rats (SHR). Male rats, aged 20 weeks or more, were fasted for 17 hours. Then, under an unanesthetized condition, the systolic blood pressure of their caudal artery was nonsurgically measured before medication as well as 2,4,6 and 24 hours after medication. Test compounds were orally administered to groups of 3-5 rats showing a systolic blood pressure of 180 mmHg or above.
When the compound of Example 10 was orally administered in a dose of 50 mg/kg, the blood pressure was reduced by 26, 34 and 46 mmHg after the lapse of 2, 4 and 6 hours, respectively.

IC50 [1] | SMILES | other results
8200 nM | O=C(O)CNC1CSc2ccccc2N(CC(=O)O)C1=O (stereo not drawn) [Example 16, 5-carboxymethyl-3-carboxymethylamino-2,3-dihydro-1,5-benzothiazepin-4(5H)-one hydrochloride] | 
> 100000 nM | CCOC(=O)CNC1CSc2ccccc2N(CC(=O)O)C1=O (stereo not drawn) [Example 15, 5-carboxymethyl-3-ethoxycarbonylmethylamino-2,3-dihydro-1,5-benzothiazepin-4(5H)-one hydrochloride] | 

The next lines start with the compound.

SMILES | IC50 [1] | other results
CCCCCCCCC(NC1CSc2ccccc2N(CC(=O)O)C1=O)C(=O)OCC (stereo not drawn) [Example 18, 5-carboxymethyl-3-(1-ethoxycarbonylnonylamino)-2,3-dihydro-1,5-benzothiazepin-4(5H)-one] | 160 nM | 
CC(NC1CSc2ccccc2N(CC(=O)O)C1=O)C(=O)O (stereo not drawn) [Example 13, 5-carboxymethyl-3-(1-carboxyethylamino)-2,3-dihydro-1,5-benzothiazepin-4(5H)-one hydrochloride] | 470 nM | 
CCOC(=O)C(C)NC1CSc2ccccc2N(CC(=O)O)C1=O (stereo not drawn) [Example 12, 5-carboxymethyl-3-(1-ethoxycarbonylethylamino)-2,3-dihydro-1,5-benzothiazepin-4(5H)-one hydrochloride] | 7000 nM | 
CCCCCCCCC(NC1CSc2ccccc2N(CC(=O)O)C1=O)C(=O)O (stereo not drawn) [Example 19, 5-carboxymethyl-3-(1-carboxynonylamino)-2,3-dihydro-1,5-benzothiazepin-4(5H)-one] | 10 nM | 
O=C(O)CN1C(=O)C(NC(CCc2ccccc2)C(=O)O)CSc2ccccc21 (stereo not drawn) [Example 8, 3-(1-carboxy-3-phenylpropylamino)-5-carboxymethyl-2,3-dihydro-1,5-benzothiazepin-4(5H)-one] |  | inhibition at 0.01 µM ([1]; 0.01 μM, read-out: inhibited ACE activity): 14.8%; inhibition at 0.1 µM ([1]; 0.1 μM, read-out: inhibited ACE activity): 77.8%
CCOC(=O)C(CCc1ccccc1)NC1CSc2ccccc2N(CC(=O)O)C1=O.Cl (stereo not drawn) [Example 10, 5-carboxymethyl-3-(1-ethoxycarbonyl-3-phenylpropylamino)-2,3-dihydro-1,5-benzothiazepin-4(5H)-one hydrochloride] |  | depressor effect, persistence ([2]; 24 hours): found to persist even after 24 hours; blood pressure was reduced by ([2]; after 2 hours): 26 mmHg; blood pressure was reduced by ([2]; after 4 hours): 34 mmHg; blood pressure was reduced by ([2]; after 6 hours): 46 mmHg
